pEC50: −log10 of the molar value.
Target: G-protein coupled receptor 55 (Homo sapiens, UniProt Q9Y2T6)
Assay: Activation of recombinant human GPR55 expressed in HEK293 cells assessed as increase in [35S]-GTPgammaS stimulation incubated for 60 min by scintillation counting method
Type: functional, cell-based

G-protein coupled receptor 55, sequence (Q9Y2T6 whole entry): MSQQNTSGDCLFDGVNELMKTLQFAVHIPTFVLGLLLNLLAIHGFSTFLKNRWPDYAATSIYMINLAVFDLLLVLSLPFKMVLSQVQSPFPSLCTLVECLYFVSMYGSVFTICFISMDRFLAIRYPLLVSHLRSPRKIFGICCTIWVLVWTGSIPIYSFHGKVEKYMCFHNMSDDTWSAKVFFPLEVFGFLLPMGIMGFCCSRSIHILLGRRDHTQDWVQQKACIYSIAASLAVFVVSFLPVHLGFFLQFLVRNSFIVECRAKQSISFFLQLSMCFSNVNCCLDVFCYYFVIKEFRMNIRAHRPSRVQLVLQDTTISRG

Structure (SMILES) | pEC50
C=C(C)[C@@H]1CCC(C)=C[C@H]1c1c(C)cc(O)cc1O | 8.70
C=C(C)[C@@H]1CCC(C)=C[C@H]1c1c(O)cc(O)cc1CCCCC | 8.70

Source: ChEMBL document CHEMBL4680278 (J Med Chem, 2020)
